Converted amounts (≈) assume the structure as drawn. Where two headings read alike, the source gives them in different places.
Experiments:
Test in all cases: Antimicrobial activity, Heart Infusion Agar Dilution Method (pH 7.2)
Assay type in all cases: cell-based
[1] = system: Escherichia coli GN2411-5
From the text: (§1) Antimicrobial activities of the compound obtained in Reference Example 9 are as follows. Heart Infusion Agar Dilution Method (pH 7.2) is used.

[2] = system: Proteus morganii KY 4298
From the text: as §1

[3] = system: Proteus rettgeri KY 4289; conditions: Providencia rettgeri, KY4289
From the text: as §1

[4] = system: Proteus vulgaris 6897
From the text: as §1

[5] = system: Pseudomonas aeruginosa 145
From the text: as §1

[6] = system: Pseudomonas putida 264
From the text: as §1

[7] = system: Serratia marcescens T-55; conditions: T55
From the text: as §1

[8] = system: Staphylococcus aureus Smith
From the text: as §1

[9] = system: Staphylococcus epidermidis
From the text: as §1

[10] = system: Escherichia coli NIHJC-2; conditions: NIHJC2
[11] = system: Escherichia coli Juhl
[12] = system: Klebsiella pneumoniae 8045
[13] = system: Klebsiella pneumoniae Y-60; conditions: Y60
[14] = system: Proteus mirabilis 1287
[15] = system: Pseudomonas aeruginosa #1
From the text: as §1

[16] = system: Serratia marcescens T-26
[17] = system: Staphylococcus aureus 209-P
From the text: as §1

[18] = Morganella morganii, KY4298, read-out: MIC

SMILES | MIC [1] [µg/mL] | MIC [2, 18] [µg/mL] | MIC [3] [µg/mL] | MIC [4] [µg/mL] | MIC ([5]; read-out: MIC) [µg/mL] | MIC ([6]; read-out: MIC) [µg/mL] | MIC [7] [µg/mL] | MIC [8] [µg/mL] | MIC ([9]; read-out: MIC) [µg/mL] | MIC [10] [µg/mL] | MIC [11] [µg/mL] | MIC [12] [µg/mL] | MIC [13] [µg/mL] | MIC [14] [µg/mL] | other results
CO/N=C(\C(=O)N[C@@H]1C(=O)N2C(C(=O)O)=C[C@@H](O)C[C@H]12)c1csc(N)n1 [A, (4S,6R,7S)-7-[2-(2-amino-4-thiazolyl)-2-syn-methoxyiminoacetamido]-4-hydroxy-1-azabicyclo[4,2,0]oct-2-en-8-on-2-carboxylic acid] | ≤ 0.01 | ≤ 0.01 | ≤ 0.01 | ≤ 0.01 | 6.25 (≈ 16.4 µM) | 0.02 (≈ 0.0524 µM) | 0.05 (≈ 0.131 µM) | 12.5 (≈ 32.8 µM) | 25 (≈ 65.6 µM) | 0.02 (≈ 0.0524 µM) | ≤ 0.01 | ≤ 0.01 | ≤ 0.01 | 0.05 (≈ 0.131 µM) | –
CO/N=C(\C(=O)N[C@@H]1C(=O)N2C(C(=O)O)=C[C@@H](O)C[C@H]12)c1csc(N)n1 (relative stereo) [B, (±)-cis-7β-[2-(2-amino-4-thiazolyl)-2-syn-methoxyiminoacetamido]-4α-hydroxy-1-azabicyclo[4,2,0]oct-2-en-8-on-2-carboxylic acid] | 0.02 (≈ 0.0524 µM) | 0.05 (≈ 0.131 µM) | < 0.01 | 0.1 (≈ 0.262 µM) | 12.5 (≈ 32.8 µM) | 0.02 (≈ 0.0524 µM) | 0.02 (≈ 0.0524 µM) | 25 (≈ 65.6 µM) | 50 (≈ 131 µM) | 0.05 (≈ 0.131 µM) | 0.05 (≈ 0.131 µM) | 0.02 (≈ 0.0524 µM) | 0.02 (≈ 0.0524 µM) | 0.1 (≈ 0.262 µM) | –
N[C@@H](C(=O)NC1C(=O)N2C(C(=O)O)=CC(O)CC12)c1ccccc1 (stereo in doubt) [C, cis-7β-[(R)-2-phenylglycinamido]-4α-hydroxy-1-azabicyclo[4,2,0]oct-2-en-8-on-2-carboxylic acid] | – | – | – | – | – | – | – | – | – | – | – | – | – | – | MIC [2]: 12.5 µg/mL (≈ 37.7 µM); MIC [15]: > 100 µg/mL; MIC [5]: > 100 µg/mL; MIC [6]: 12.5 µg/mL (≈ 37.7 µM); MIC [9]: 12.5 µg/mL (≈ 37.7 µM); MIC [16]: 100 µg/mL (≈ 302 µM)
Cc1nnc(SCC2=C(C(=O)O)N3C(=O)[C@@H](NC(=O)Cn4cnnn4)[C@H]3SC2)s1 [Cefazolin, reference compound] | 0.78 (≈ 1.72 µM) | > 100 | 25 (≈ 55 µM) | 25 (≈ 55 µM) | > 100 | > 100 | > 100 | 0.78 (≈ 1.72 µM) | 0.78 (≈ 1.72 µM) | – | – | – | 3.12 (≈ 6.86 µM) | 12.5 (≈ 27.5 µM) | MIC ([15]; read-out: MIC): > 100 µg/mL; MIC [17]: 0.02 µg/mL (≈ 0.044 µM); MIC ([16]; T26, read-out: MIC): > 100 µg/mL

Source: patent US4302540A, “Process of producing optically active cephalosporin analogs by enzyme selective deacylation” (Kyowa Hakko Kogyo Co., Ltd., priority 1979, dated 1981)
